Test results taken from patent US7576175B2, “Alpha-4 beta-1 integrin ligands for imaging and therapy” (The Regents of the University of California, priority 2004, dated 2009).
Numbered stars: 1 amine (or outer) side, 2 acyl side, 3 side chain; on linkers, the order of the positions; unused ones are H or OH. Square brackets hold non-standard residues; d marks the D form. Peptide text beside a SMILES is read from it. * marks the point of attachment. Acryloyl(3-(3-pyridyl),E) = O=C(/C=C/c1cccnc1)*; dBpa = N[C@H](Cc1ccc(C(=O)c2ccccc2)cc1)C(=O)O; d2Nal = N[C@H](Cc1ccc2ccccc2c1)C(=O)O; Ala(cPr) = N[C@@H](CC1CC1)C(=O)O; Hyp = O=C(O)[C@@H]1C[C@@H](O)CN1; X1 = O=C(Cc1ccc(N[*:1])cc1)[*:2]; d3Pal = N[C@H](Cc1cccnc1)C(=O)O; Aad = N[C@@H](CCCC(=O)O)C(=O)O; Cha = N[C@@H](CC1CCCCC1)C(=O)O; NH(2-Me-phenyl) = Cc1ccccc1N*; Chg = N[C@H](C(=O)O)C1CCCCC1; Nle = CCCC[C@H](N)C(=O)O; Ac5c = NC1(C(=O)O)CCCC1; Ac3c = NC1(C(=O)O)CC1; CO = O=C([*:1])[*:2]

molecular target: T1, α4β1 integrin (Homo sapiens, UniProt P05556+P13612); experiment: Cell-based α4β1-mediated adhesion assay: inhibition of Jurkat cell adhesion to immobilized CS-1 peptide (IC50); conditions: not given
T1 construct: screened against live Jurkat cells (α4β1 integrin-positive); endogenous in cells; host or cells: Jurkat T-leukemia cells
T1 sequence (P13612 34-1032): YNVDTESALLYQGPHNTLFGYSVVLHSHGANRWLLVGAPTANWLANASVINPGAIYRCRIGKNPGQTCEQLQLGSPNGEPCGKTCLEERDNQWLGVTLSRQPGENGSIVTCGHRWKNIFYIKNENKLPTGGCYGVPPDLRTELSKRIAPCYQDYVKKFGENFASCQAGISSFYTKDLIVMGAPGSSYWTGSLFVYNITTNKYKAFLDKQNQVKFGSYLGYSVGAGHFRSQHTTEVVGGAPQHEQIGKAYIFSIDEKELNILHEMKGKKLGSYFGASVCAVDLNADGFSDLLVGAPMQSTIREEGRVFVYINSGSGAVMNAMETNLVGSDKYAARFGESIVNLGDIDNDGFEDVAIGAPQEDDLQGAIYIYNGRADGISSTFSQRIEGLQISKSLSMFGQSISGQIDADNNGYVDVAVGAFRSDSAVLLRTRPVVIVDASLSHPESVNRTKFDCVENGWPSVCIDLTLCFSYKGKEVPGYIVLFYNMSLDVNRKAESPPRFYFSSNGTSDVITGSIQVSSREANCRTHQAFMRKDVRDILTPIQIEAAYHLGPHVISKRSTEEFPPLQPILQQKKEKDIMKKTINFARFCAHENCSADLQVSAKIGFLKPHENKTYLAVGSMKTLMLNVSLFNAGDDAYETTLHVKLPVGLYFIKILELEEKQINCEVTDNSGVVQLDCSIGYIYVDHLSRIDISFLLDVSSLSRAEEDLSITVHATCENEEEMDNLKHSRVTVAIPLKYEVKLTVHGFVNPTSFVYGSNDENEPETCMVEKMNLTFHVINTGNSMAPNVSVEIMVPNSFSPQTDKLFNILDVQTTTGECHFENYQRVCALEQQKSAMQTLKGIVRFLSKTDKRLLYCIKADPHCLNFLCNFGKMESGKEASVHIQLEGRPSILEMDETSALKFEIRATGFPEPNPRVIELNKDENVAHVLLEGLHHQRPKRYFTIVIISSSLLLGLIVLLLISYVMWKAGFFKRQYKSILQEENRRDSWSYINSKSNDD
T1 sequence (P05556 21-798): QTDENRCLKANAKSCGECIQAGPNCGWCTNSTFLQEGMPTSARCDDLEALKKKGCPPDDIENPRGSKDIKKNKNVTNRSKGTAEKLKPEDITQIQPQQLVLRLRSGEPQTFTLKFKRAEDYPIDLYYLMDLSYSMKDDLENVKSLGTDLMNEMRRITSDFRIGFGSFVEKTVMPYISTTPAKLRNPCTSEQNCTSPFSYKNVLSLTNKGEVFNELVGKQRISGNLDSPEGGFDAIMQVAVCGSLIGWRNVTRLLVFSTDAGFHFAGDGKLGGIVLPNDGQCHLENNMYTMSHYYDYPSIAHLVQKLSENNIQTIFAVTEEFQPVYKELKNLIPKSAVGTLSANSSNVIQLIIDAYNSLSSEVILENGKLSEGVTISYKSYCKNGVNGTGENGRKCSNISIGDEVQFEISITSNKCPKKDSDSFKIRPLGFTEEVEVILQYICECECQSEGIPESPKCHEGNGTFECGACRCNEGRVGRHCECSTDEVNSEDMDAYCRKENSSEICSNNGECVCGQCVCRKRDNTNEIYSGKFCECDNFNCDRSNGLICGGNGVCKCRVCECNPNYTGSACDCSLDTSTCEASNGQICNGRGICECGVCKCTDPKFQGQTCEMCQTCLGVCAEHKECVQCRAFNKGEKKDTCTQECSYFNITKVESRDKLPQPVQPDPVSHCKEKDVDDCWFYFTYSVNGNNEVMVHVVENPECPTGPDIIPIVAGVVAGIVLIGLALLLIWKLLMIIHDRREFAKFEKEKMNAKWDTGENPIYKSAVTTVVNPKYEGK

Row | SMILES | IC50 [nM]
1 | Cc1ccccc1NC(=O)Nc1ccc(CC(=O)N[C@@H](CCCCNC(=O)/C=C/c2cccnc2)C(=O)N[C@@H](CCCC(=O)O)C(=O)NC2(C(=O)N[C@H](CC(=O)O)C(N)=O)CC2)cc1 [3A] ({NH(2-Me-phenyl)-CO}-[X1]K(Acryloyl(3-(3-pyridyl),E))[Aad][Ac3c][dD]-NH2) | 0.5
2 | Cc1ccccc1NC(=O)Nc1ccc(CC(=O)N[C@@H](CCCCNC(=O)/C=C/c2cccnc2)C(=O)N[C@@H](CCCC(=O)O)C(=O)N[C@H](Cc2ccccc2)C(=O)N[C@H](CC(=O)O)C(N)=O)cc1 [4A] ({NH(2-Me-phenyl)-CO}-[X1]K(Acryloyl(3-(3-pyridyl),E))[Aad][dF][dD]-NH2) | 0.4
3 | Cc1ccccc1NC(=O)Nc1ccc(CC(=O)N[C@@H](CCCCNC(=O)/C=C/c2cccnc2)C(=O)N[C@@H](CCCC(=O)O)C(=O)N[C@H](Cc2ccccc2)C(=O)N[C@H](Cc2cccnc2)C(N)=O)cc1 [7A] ({NH(2-Me-phenyl)-CO}-[X1]K(Acryloyl(3-(3-pyridyl),E))[Aad][dF][d3Pal]-NH2) | 4
4 | CCCC[C@H](NC(=O)Cc1ccc(NC(=O)Nc2ccccc2C)cc1)C(=O)N[C@@H](CCCC(=O)O)C(=O)N[C@@H](CC1CCCCC1)C(=O)N[C@H](CCC(=O)O)C(N)=O [8A] ({NH(2-Me-phenyl)-CO}-[X1][Nle][Aad][Cha][dE]-NH2) | 0.75
5 | CCCC[C@H](NC(=O)Cc1ccc(NC(=O)Nc2ccccc2C)cc1)C(=O)N[C@@H](CCCC(=O)O)C(=O)N[C@H](C(=O)N1C[C@H](O)C[C@H]1C(=O)N[C@@H](CCCC(=O)O)C(N)=O)C1CCCCC1 [9A] ({NH(2-Me-phenyl)-CO}-[X1][Nle][Aad][Chg][Hyp][Aad]-NH2) | 1.45
6 | Cc1ccccc1NC(=O)Nc1ccc(CC(=O)N[C@@H](CC2CC2)C(=O)N[C@@H](CCCC(=O)O)C(=O)N[C@H](C(=O)NC2(C(=O)N[C@H](CC(=O)O)C(=O)N[C@H](CCC(=O)O)C(N)=O)CCCC2)C2CCCCC2)cc1 [10A] ({NH(2-Me-phenyl)-CO}-[X1][Ala(cPr)][Aad][Chg][Ac5c][dD][dE]-NH2) | 0.53
7 | Cc1ccccc1NC(=O)Nc1ccc(CC(=O)N[C@@H](CCCCNC(=O)/C=C/c2cccnc2)C(=O)N[C@@H](CCCC(=O)O)C(=O)N[C@H](Cc2ccc3ccccc3c2)C(=O)N[C@@H](C(=O)N[C@H](Cc2ccc(C(=O)c3ccccc3)cc2)C(N)=O)[C@H](C)O)cc1 [11A] ({NH(2-Me-phenyl)-CO}-[X1]K(Acryloyl(3-(3-pyridyl),E))[Aad][d2Nal][dT][dBpa]-NH2) | 77.5
8 | Cc1ccccc1NC(=O)Nc1ccc(CC(=O)N[C@@H](CCCCNC(=O)/C=C/c2cccnc2)C(=O)N[C@@H](CCCC(=O)O)C(=O)N[C@@H](Cc2ccccc2)C(N)=O)cc1 [14A] | 0.2

same assay, conditions: Jurkat cell adhesion to CS-1 peptide; re-synthesized ligands of Tables 18 and 19; read-out: IC50

Row | SMILES | IC50 [nM]
9 | Cc1ccccc1NC(=O)Nc1ccc(CC(=O)N[C@@H](CCCCNC(=O)/C=C/c2cccnc2)C(=O)N[C@@H](CCCC(=O)O)C(=O)N[C@H](Cc2ccccc2)C(N)=O)cc1 [1A] | 0.022
10 | Cc1ccccc1NC(=O)Nc1ccc(C(C)C(=O)N[C@@H](CCCCNC(=O)/C=C/c2cccnc2)C(=O)N[C@@H](CCCC(=O)O)C(=O)N[C@H](Cc2ccccc2)C(N)=O)cc1 (stereo partly drawn) [1B] | 8.9
11 | Cc1ccccc1NC(=O)Nc1ccc(C(C)C(=O)N[C@@H](CCCCNC(=O)/C=C/c2cccnc2)C(=O)N[C@@H](CCCC(=O)O)C(=O)NC2(C(N)=O)CCCCC2)cc1 (stereo partly drawn) [2B] | 9.5
12 | Cc1ccccc1NC(=O)Nc1ccc(CC(=O)N[C@@H](CCCCNC(=O)/C=C/c2cccnc2)C(=O)N[C@@H](CCCC(=O)O)C(=O)N[C@H](Cc2ccccc2)C(=O)O)cc1 [12A] | 0.4
13 | Cc1ccccc1NC(=O)Nc1ccc(CC(=O)N[C@@H](CCCCNC(=O)/C=C/c2cccnc2)C(=O)N[C@@H](CCCC(=O)O)C(=O)N[C@H](C(N)=O)C(C)C)cc1 [15A] | 0.2
14 | Cc1ccccc1NC(=O)Nc1ccc(CC(=O)N[C@@H](CCCCNC(=O)/C=C/c2cccnc2)C(=O)N[C@@H](CCCC(=O)O)C(=O)N[C@@H](C(N)=O)C(C)C)cc1 [16A] | 0.2

molecular target: T1, α4β1 integrin; experiment: Bead-binding inhibition assay: soluble ligand inhibits binding of Jurkat cells to BIO-1211-containing beads; type: cell-based; conditions: overnight incubation, FIG. 7
From the text: To this end, the bead library was screened using Jurkat cells in the presence of BIO-1211.
This library was screened using a competitive cell-based screening method with high stringency so that only those ligands with very high affinity to α4β1 integrin are coated by a layer of lymphoma cells (FIG. 2). To achieve this, an increasing amount of known α4β1 antagonist was incorporated into the screening solution, which competed with the interaction between cell surface α4β1 integrin and the immobilized library compounds on the bead surface, until a limited number of positive beads were detected in the library. […] Twenty beads were isolated under these high stringency conditions. Guanidine HCl (8 M) was used to strip the beads of all cells and proteins. The recovered beads were then retested with normal peripheral blood lymphocytes. Beads that bound preferentially to Jurkat cells but not to normal lymphocytes were sequenced. A total of twelve true positive beads were isolated and decoded, which represented 6 independent ligands. All of the identified ligands have the following structure:
The bead-binding inhibition assay was performed using the soluble ligand to inhibit the binding of Jurkat cells to the BIO-1211-containing beads.

Row | SMILES | concentration inhibiting binding of Jurkat cells to BIO-1211-containing beads, compared with BIO-1211
15 | Cc1ccccc1NC(=O)Nc1ccc(CC(=O)N[C@@H](CCCCNC(=O)/C=C/c2cccnc2)C(=O)N[C@@H](CCCC(=O)O)C(=O)N[C@H](Cc2ccccc2)C(=O)N[C@H](CC(=O)O)C(N)=O)cc1 [4A] ({NH(2-Me-phenyl)-CO}-[X1]K(Acryloyl(3-(3-pyridyl),E))[Aad][dF][dD]-NH2) | significantly lower concentration than BIO-1211

same assay, conditions: soluble ligand vs BIO-1211-containing beads, Jurkat cells

Row | SMILES | binding affinity for α4β1 integrin in the bead-binding inhibition assay
16 | Cc1ccccc1NC(=O)Nc1ccc(CC(=O)N[C@@H](CCCCNC(=O)/C=C/c2cccnc2)C(=O)N[C@@H](CCCC(=O)O)C(=O)NC2(C(N)=O)CCCCC2)cc1 [2A] | highest binding affinities
17 | Cc1ccccc1NC(=O)Nc1ccc(CC(=O)N[C@@H](CCCCNC(=O)/C=C/c2cccnc2)C(=O)N[C@@H](CCCC(=O)O)C(=O)NC2(C(=O)N[C@H](CC(=O)O)C(N)=O)CC2)cc1 [3A] ({NH(2-Me-phenyl)-CO}-[X1]K(Acryloyl(3-(3-pyridyl),E))[Aad][Ac3c][dD]-NH2) | highest binding affinities
18 | Cc1ccccc1NC(=O)Nc1ccc(CC(=O)N[C@@H](CCCCNC(=O)/C=C/c2cccnc2)C(=O)N[C@@H](CCCC(=O)O)C(=O)N[C@H](Cc2ccccc2)C(=O)N[C@H](CC(=O)O)C(N)=O)cc1 [4A] ({NH(2-Me-phenyl)-CO}-[X1]K(Acryloyl(3-(3-pyridyl),E))[Aad][dF][dD]-NH2) | highest binding affinities
